Reference: patent US20230405063A1, “USE OF PROBIOTIC COMPONENT AND PHARMACEUTICAL COMPOSITION CONTAINING PROBIOTIC COMPONENT” (CHENGDU KUACHANGAOPU MEDICAL TECHNOLOGY CO., LTD., priority 2020, published 2023)

Assays:
Format in all cases: in vivo
[1] = system: gastric tumor cells (BGC823); assay: Tumor inhibition in BGC823 tumor-bearing nude mice (Example 5, Table 8); conditions: intratumoral injection once, 150 μl/mouse, 7th day
Text: The method for determining the effect of combined drug administration in animal experiments was Burgi method (Burgi Y. Pharmacology; Drug actions and reactions. Cancerres. 1978, 38(2), 284-285). The Burgi method was modified by Zhengjun JIN (Zhengjun JIN, Equal probability and curve and “Q50”, Journal of the Second Shanghai Medical College; 1981, 1, 75-86) with q calculated as: q=EA+B/(EA+EB−EA×EB). In the following examples of the present invention, the combinational pharmaceutical efficacies (drug efficacies) of drug A and drug B co-administration was determined by ratio q of actual pharmaceutical efficacy (drug efficacy)/theoretical pharmaceutical efficacy (drug efficacy) according to Zhengjun JIN method, as follows.
Nude mice were used as experimental subjects, and gastric tumor cells (BGC823) were used as modeling cells, 1×10^5 cells/mouse were injected into the right axilla subcutaneously for transplantation tumor modeling, and the average tumor volume of successfully modeled nude mice was 164.4 mm^3. The model animals were randomly divided into 14 groups, and the drugs according to the pharmacological constitutions in Table 8 were administered via intratumoral injection. Each group was dosed once with an injection volume of 150 μl/mouse; wherein the pharmaceutical compositions of groups 5, 11 were semi-fluid, the pharmaceutical compositions of other groups are liquid. On the 7th day after drug administration, the animals were euthanized, and after dissection, the tumor tissue was taken out to determine the tumor weight, and the tumor inhibition rate (r) was calculated relative to the negative control group. Further, the actual efficacy/expected efficacy ratio q of a drug could also be calculated according to the therapeutic effect (tumor inhibition rate).

[2] = system: outer lateral muscle mass of the right leg; assay: Local effect on normal muscle tissue, area of abnormal regions, BALB/c mice (Example 9, Table 15); conditions: dosed once into muscle, 100 ul/mouse, 7th day
Procedure: BALB/c mice were used as experimental subjects, and the model animals were randomly divided into 4 groups, having 6 animals in each group. The drugs were administered according to Table 15. […] On the 7th day after drug administration, the animals were euthanized. The specimens of the outer lateral muscle mass of the right leg were taken out by autopsy, and perform a general pathological analysis. The sections were measured for the area of abnormal regions such as necrosis and nodules that distinguished from normal muscle.

[3] = system: outer lateral muscle mass of the right leg; assay: Local effect on normal muscle tissue, area of abnormal regions, nude mice
Procedure: The animals were euthanized on the 7th day after drug administration, and the specimens of the outer lateral muscle mass of the right leg from the nude mice were taken out by autopsy, and the areas of abnormal regions different from normal muscles, such as of necrosis and nodules, were measured after sectioning and washing.
Each group was dosed once with an injection volume of 100 μl/mouse by administering to the outer lateral muscle mass of the right leg. On the 7th day after drug administration, the animals were euthanized, and the specimens of the outer lateral muscle mass of the right leg were taken out after dissection to perform a general pathological analysis. The sections were measured for the area of abnormal regions that distinguished from normal muscle, such as necrosis and nodules.

Row | SMILES | Tumor inhibition rate r [1] | Tumor weight (x ± s) [1] | Area of abnormal regions [2] | Area of abnormal regions (necrosis, nodules) ([3]; dosed once into muscle 100 μl/mouse, 7th day (b197 experiment)) | Areas of the abnormal regions (necrosis, nodules) ([3]; injection into muscle 100 ul/mouse, 7th day (b168 experiment))
1 | O=c1[nH]cc(F)c(=O)[nH]1 [1% 5-fluorouracil, 5-fluorouracil] | 41.4% | 0.132 ± 0.069 g | – | – | –
2 | CCO [75% ethanol, ethanol] | – | – | 33.16 ± 13.44 mm^2 | 32.24±13.71 mm^2 | 35.14±15.92 mm^2
